Residues, ends and D or L forms follow the SMILES beside them.
Molecular target: E3 peptide (21 amino acid)
Assay: E/K coiled coil stability (length dependence, Figure S1), E3/K3 complex
Type: binding
Details: 21 aa long E3 and K3 peptides
Experimental: The PAINT process requires a dynamic equilibrium between bound and unbound states of the fluorescently labeled imager probe. In DNA-PAINT, this is achieved when the transiently formed duplexes have stabilities in the micromolar range (KD ≈ 1 μM). The interaction between the 21 amino acid (aa) long E3 and K3 peptides previously used for protein imaging[20]−[23] leads to a coiled coil complex with nanomolar stability (KD ≈ 20 nM, Figure S1). Aiming for the identification of a suitable weaker affinity, we investigated the length dependence of coiled coil stability (Figure S1).

SMILES: CC[C@H](C)[C@H](NC(=O)[C@H](CCCCN)NC(C)=O)C(=O)N[C@@H](C)C(=O)N[C@@H](C)C(=O)N[C@@H](CC(C)C)C(=O)N[C@@H](CCCCN)C(=O)N[C@@H](CCC(=O)O)C(=O)N[C@@H](CCCCN)C(=O)N[C@H](C(=O)N[C@@H](C)C(=O)N[C@@H](C)C(=O)N[C@@H](CC(C)C)C(=O)N[C@@H](CCCCN)C(=O)N[C@@H](CCC(=O)O)C(=O)N[C@@H](CCCCN)C(=O)N[C@H](C(=O)N[C@@H](C)C(=O)N[C@@H](C)C(=O)N[C@@H](CC(C)C)C(=O)N[C@@H](CCCCN)C(=O)N[C@@H](CCC(=O)O)C(N)=O)[C@@H](C)CC)[C@@H](C)CC [K3] (Ac-KIAALKEKIAALKEKIAALKE-NH2)
- Kd: ~0.02 µM

Source: PMC7496730, “Peptide-PAINT Super-Resolution Imaging Using Transient Coiled Coil Interactions” (Nano Letters, 2020)
